Assay results as given in patent publication US20260132129A1 (Genesis Therapeutics, Inc., priority 2022, published 2026).

Target: T1, PI3Kα H1047R (T47D cells) (Homo sapiens, UniProt P42336, H1047R)
T1 construct: endogenous in cells; host or cells: T47D cells
Assay: PI3Kα cellular assay: pAKT HTRF in T47D cells after EGF stimulation
Assay type: cell-based
Conditions: for IC50: T47D cells (PI3Kα H1047R), pAKT S473 HTRF, EGF stimulation
In short: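 pAKT read by HTRF in lysates of EGF-stimulated (20 ng/mL, 10 min) T47D H1047R cells. Before stimulation, serum-starved cells (16 h) received compound for 1 h at 37 °C, dosed from 10,000 nM down to 0.5 nM in 3-fold steps.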

T1 sequence (P42336 whole entry H1047R): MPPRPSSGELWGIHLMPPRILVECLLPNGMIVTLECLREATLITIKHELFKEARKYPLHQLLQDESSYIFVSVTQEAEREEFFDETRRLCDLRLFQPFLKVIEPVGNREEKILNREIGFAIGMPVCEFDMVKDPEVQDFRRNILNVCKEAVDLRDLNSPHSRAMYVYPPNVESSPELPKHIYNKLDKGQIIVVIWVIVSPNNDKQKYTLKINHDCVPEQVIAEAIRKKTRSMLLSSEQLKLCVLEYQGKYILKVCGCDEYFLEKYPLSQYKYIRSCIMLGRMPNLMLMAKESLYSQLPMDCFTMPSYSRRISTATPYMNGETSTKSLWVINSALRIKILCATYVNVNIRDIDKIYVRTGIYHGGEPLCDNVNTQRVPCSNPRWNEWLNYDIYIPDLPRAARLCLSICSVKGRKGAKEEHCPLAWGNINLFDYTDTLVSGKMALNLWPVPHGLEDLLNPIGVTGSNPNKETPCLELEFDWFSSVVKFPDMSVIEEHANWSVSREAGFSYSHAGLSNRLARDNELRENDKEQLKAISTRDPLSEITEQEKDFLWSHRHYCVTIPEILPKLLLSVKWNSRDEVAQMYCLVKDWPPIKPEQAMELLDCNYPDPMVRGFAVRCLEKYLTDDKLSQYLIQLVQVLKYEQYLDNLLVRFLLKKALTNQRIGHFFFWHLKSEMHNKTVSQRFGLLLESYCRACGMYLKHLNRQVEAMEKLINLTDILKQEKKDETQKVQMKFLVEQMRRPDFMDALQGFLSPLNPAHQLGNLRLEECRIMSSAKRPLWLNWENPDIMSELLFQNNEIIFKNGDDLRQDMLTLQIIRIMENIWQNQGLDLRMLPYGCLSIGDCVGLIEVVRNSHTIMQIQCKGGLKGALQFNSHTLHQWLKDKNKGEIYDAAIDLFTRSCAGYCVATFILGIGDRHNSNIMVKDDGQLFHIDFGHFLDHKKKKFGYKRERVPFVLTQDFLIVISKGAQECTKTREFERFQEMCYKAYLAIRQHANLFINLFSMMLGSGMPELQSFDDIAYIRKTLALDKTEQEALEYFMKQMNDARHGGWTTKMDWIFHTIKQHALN
T1 sequence (P27986 whole entry partner): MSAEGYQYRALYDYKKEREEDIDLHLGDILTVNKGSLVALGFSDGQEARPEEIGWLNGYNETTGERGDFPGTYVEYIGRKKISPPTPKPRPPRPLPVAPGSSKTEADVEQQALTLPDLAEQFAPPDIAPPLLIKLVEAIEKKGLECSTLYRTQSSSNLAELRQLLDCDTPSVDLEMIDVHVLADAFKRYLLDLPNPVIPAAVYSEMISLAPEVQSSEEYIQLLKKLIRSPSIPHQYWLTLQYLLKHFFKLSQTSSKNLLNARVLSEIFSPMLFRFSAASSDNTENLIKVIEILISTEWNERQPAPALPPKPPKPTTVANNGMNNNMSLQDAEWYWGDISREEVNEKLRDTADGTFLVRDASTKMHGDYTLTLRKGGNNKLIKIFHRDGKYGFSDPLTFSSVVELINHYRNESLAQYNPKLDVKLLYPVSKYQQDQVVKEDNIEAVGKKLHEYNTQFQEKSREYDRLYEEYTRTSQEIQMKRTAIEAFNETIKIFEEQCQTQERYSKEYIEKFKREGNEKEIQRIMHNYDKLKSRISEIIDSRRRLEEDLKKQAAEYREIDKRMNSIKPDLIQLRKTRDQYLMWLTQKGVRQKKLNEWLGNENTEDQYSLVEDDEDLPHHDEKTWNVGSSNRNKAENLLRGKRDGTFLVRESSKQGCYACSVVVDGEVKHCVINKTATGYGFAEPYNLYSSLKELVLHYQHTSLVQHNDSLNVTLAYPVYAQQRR

| IC50 | T47D pAKT S473 HTRF IC50 (H1047R): T47D (H1047R) selectivity over SKBR3 (WT) | SMILES |
| --- | --- | --- |
| > 2 µM | C (C denotes ≤5-fold) | Cc1cc(C(C)Nc2ccccc2-c2ccnnc2)c2nc(-c3ccc4c(C)nn(C5CC5)c4c3)c(C)c(=O)n2c1 (stereo not shown) [Compound 1127] |
| > 2 µM | C (C denotes ≤5-fold) | Cc1cc([C@@H](C)Nc2ccccc2-c2ccnnc2)c2nc(-c3ccc4c(C)nn(C5CC5)c4c3)c(C)c(=O)n2c1 [Compound 1128] |
| 0.1 to 0.5 µM | A (A denotes >20-fold) | Cc1cc([C@@H](C)Nc2ccccc2C(N)=O)c2nc(-c3cnc(C)c(Cl)c3)c(C)c(=O)n2c1 [Compound 1135] |
|  | A (A denotes >20-fold) | Cc1cc(C(C)Nc2ccccc2-c2ccnnc2)c2nc(-c3ccc(C)c(Cl)c3)c(C)c(=O)n2c1 (stereo not shown) [Compound 1140] |
| 0.1 to 0.5 µM | A (A denotes >20-fold) | Cc1cc(C(C)Nc2ccccc2-c2ccnnc2)c2nc(-c3cccnc3)c(C)c(=O)n2c1 (stereo not shown) [Compound 1143] |
| > 2 µM | C (C denotes ≤5-fold) | Cc1cc([C@@H](C)Nc2ccccc2-c2ccnnc2)c2nc(-c3cccnc3)c(C)c(=O)n2c1 [Compound 1144] |
| > 2 µM | C (C denotes ≤5-fold) | Cc1cc([C@H](C)Nc2ccccc2C(=O)O)c2nc(-c3ccc(C4CCOCC4)nc3)c(C)c(=O)n2c1 [Compound 1147] |
| 0.1 to 0.5 µM | A (A denotes >20-fold) | Cc1cc([C@@H](C)Nc2ccccc2C(N)=O)c2nc(-c3ccc(C4CC4)nc3)c(C)c(=O)n2c1 [Compound 1153] |
| > 2 µM | C (C denotes ≤5-fold) | Cc1cc([C@H](C)Nc2ccccc2C(N)=O)c2nc(-c3ccc(C4CC4)nc3)c(C)c(=O)n2c1 [Compound 1154] |
| 0.1 to 0.5 µM | A (A denotes >20-fold) | Cc1cc([C@@H](C)Nc2ccccc2C(=O)O)c2nc(-c3cnc(C)c(Cl)c3)cc(=O)n2c1 [Compound 1157] |
| > 2 µM | C (C denotes ≤5-fold) | CCC(Nc1ccccc1S(N)(=O)=O)c1cc(C)cn2c(=O)cc(N3CCOCC3)nc12 (stereo not shown) [Compound 1159] |
| < 0.1 µM | A (A denotes >20-fold) | Cc1cc(C(C)Nc2ccccc2C(=O)O)c2nc(N3Cc4ccccc4C3)c(C#N)c(=O)n2c1 (stereo not shown) [Compound 1160] |
| < 0.1 µM | A (A denotes >20-fold) | Cc1cc(C(C)Nc2ccccc2C(=O)O)c2nc(-c3cc(F)cc(C4CC4)c3)c(C)c(=O)n2c1 (stereo not shown) [Compound 1169] |
| < 0.1 µM | A (A denotes >20-fold) | Cc1cc(C(C)Nc2ccccc2C(=O)O)c2nc(-c3ccc(C(C)C)nc3)c(C)c(=O)n2c1 (stereo not shown) [Compound 1178] |
| < 0.1 µM | A (A denotes >20-fold) | Cc1cc(C(C)Nc2cc(F)ccc2C(=O)O)c2nc(-c3ccnc(C4CC4)c3)c(C)c(=O)n2c1 (stereo not shown) [Compound 1182] |
| < 0.1 µM | A (A denotes >20-fold) | C#Cc1ccc(-c2nc3c(C(C)Nc4ccccc4C(=O)O)cc(C)cn3c(=O)c2C)cn1 (stereo not shown) [Compound 1191] |
| > 2 µM | C (C denotes ≤5-fold) | Cc1cc([C@@H](C)Nc2ccccc2C(=O)O)c2nc(-c3ccnc(C)n3)c(C)c(=O)n2c1 [Compound 1198] |
| 0.1 to 0.5 µM | A (A denotes >20-fold) | Cc1cc(C(C)Nc2ccccc2C(=O)O)c2nc(-c3cc(C)ncn3)c(C)c(=O)n2c1 (stereo not shown) [Compound 1203] |
| > 2 µM | C (C denotes ≤5-fold) | CC#Cc1nc2c([C@@H](C)Nc3ccccc3C(=O)O)cc(C)cn2c(=O)c1C [Compound 1205] |
| 0.5 to 2 µM | B (B denotes 20-fold≥value>5-fold) | CC#Cc1nc2c([C@H](C)Nc3ccccc3C(=O)O)cc(C)cn2c(=O)c1C [Compound 1206] |
| 0.1 to 0.5 µM | A (A denotes >20-fold) | Cc1cc([C@H](C)Nc2ccccc2C(=O)O)c2nc(N3Cc4ccccc4C3)c(C#N)c(=O)n2c1 [Compound 1208] |

The remaining lines, values behind:

| SMILES | IC50 | T47D pAKT S473 HTRF IC50 (H1047R): T47D (H1047R) selectivity over SKBR3 (WT) |
| --- | --- | --- |
| Cc1cc([C@H](C)Nc2ccccc2)c2nc(-c3ccc(F)cc3)c(C)c(=O)n2c1 [Compound 1124] | > 2 µM | C (C denotes ≤5-fold) |
| Cc1cc([C@H](C)Nc2ccccc2C(=O)O)c2nc(-c3ccc4c(C)nn(C5CC5)c4c3)c(C)c(=O)n2c1 [Compound 1126] | > 2 µM | C (C denotes ≤5-fold) |
| Cc1cc([C@H](C)Nc2ccccc2-c2ccnnc2)c2nc(-c3ccc4c(C)nn(C5CC5)c4c3)c(C)c(=O)n2c1 [Compound 1129] | 0.5 to 2 µM | B (B denotes 20-fold≥value>5-fold) |
| Cc1cc([C@H](C)Nc2ccccc2C(N)=O)c2nc(-c3ccc4c(C)cn(C)c4c3)c(C)c(=O)n2c1 [Compound 1131] | > 2 µM | C (C denotes ≤5-fold) |
| Cc1cc(C(C)Nc2ccccc2-c2ccnnc2)c2nc(-c3ccc4c(C)cn(C)c4c3)c(C)c(=O)n2c1 (stereo not shown) [Compound 1132] | > 2 µM | C (C denotes ≤5-fold) |
| Cc1cc([C@@H](C)Nc2ccccc2-c2ccnnc2)c2nc(-c3ccc4c(C)cn(C)c4c3)c(C)c(=O)n2c1 [Compound 1133] | > 2 µM | C (C denotes ≤5-fold) |
| Cc1cc([C@H](C)Nc2ccccc2-c2ccnnc2)c2nc(-c3ccc4c(C)cn(C)c4c3)c(C)c(=O)n2c1 [Compound 1134] | 0.5 to 2 µM | B (B denotes 20-fold≥value>5-fold) |
| Cc1cc([C@H](C)Nc2ccccc2C(N)=O)c2nc(-c3cnc(C)c(Cl)c3)c(C)c(=O)n2c1 [Compound 1136] | > 2 µM | C (C denotes ≤5-fold) |
| Cc1cc([C@@H](C)Nc2ccccc2C(N)=O)c2nc(-c3cccc(C#N)c3)c(C)c(=O)n2c1 [Compound 1137] | < 0.1 µM | A (A denotes >20-fold) |
| Cc1cc([C@H](C)Nc2ccccc2C(N)=O)c2nc(-c3cccc(C#N)c3)c(C)c(=O)n2c1 [Compound 1138] | > 2 µM | C (C denotes ≤5-fold) |
| Cc1cc([C@@H](C)Nc2ccccc2-c2ccnnc2)c2nc(-c3cnc(C)c(Cl)c3)c(C)c(=O)n2c1 [Compound 1141] |  | C (C denotes ≤5-fold) |
| Cc1cc([C@H](C)Nc2ccccc2-c2ccnnc2)c2nc(-c3cccnc3)c(C)c(=O)n2c1 [Compound 1145] | 0.1 to 0.5 µM | A (A denotes >20-fold) |
| Cc1cc([C@@H](C)Nc2ccccc2C(=O)O)c2nc(-c3ccc(C4CCOCC4)nc3)c(C)c(=O)n2c1 [Compound 1146] | < 0.1 µM | A (A denotes >20-fold) |
| Cc1cc([C@H](C)Nc2ccccc2C(=O)O)c2nc(-c3ccc(C(F)F)nc3)c(C)c(=O)n2c1 [Compound 1149] | > 2 µM | C (C denotes ≤5-fold) |
| CC1=CN2C(=O)C(C)C(c3ccc(CCC(C)(C)C)cc3)N=C2C([C@H](C)Nc2ccccc2C(=O)O)=C1 (stereo partly shown) [Compound 1151] |  | C (C denotes ≤5-fold) |
| Cc1cc(C(C)Nc2ccccc2C(N)=O)c2nc(-c3cccnc3)c(C)c(=O)n2c1 (stereo not shown) [Compound 1152] | 0.1 to 0.5 µM | A (A denotes >20-fold) |
| Cc1cc([C@@H](C)Nc2ccccc2C(=O)O)c2nc(-c3ccnc(C4CC4)c3)cc(=O)n2c1 [Compound 1155] | > 2 µM | C (C denotes ≤5-fold) |
| Cc1cc([C@H](C)Nc2ccccc2C(=O)O)c2nc(-c3ccnc(C4CC4)c3)cc(=O)n2c1 [Compound 1156] | < 0.1 µM | A (A denotes >20-fold) |
| Cc1cc([C@H](C)Nc2ccccc2C(=O)O)c2nc(-c3cnc(C)c(Cl)c3)cc(=O)n2c1 [Compound 1158] | > 2 µM | C (C denotes ≤5-fold) |
| Cc1cc([C@@H](C)Nc2ccccc2)c2nc(N(C)Cc3ccccc3)c(C)c(=O)n2c1 [Compound 1163] | 0.1 to 0.5 µM | A (A denotes >20-fold) |
| CC#Cc1nc2c(C(C)Nc3ccccc3C(=O)O)cc(C)cn2c(=O)c1C (stereo not shown) [Compound 1185] | 0.5 to 2 µM | B (B denotes 20-fold≥value>5-fold) |
| Cc1cc(C(C)Nc2ccccc2C(=O)O)c2nc(C#CC3CC3)c(C)c(=O)n2c1 (stereo not shown) [Compound 1186] | 0.1 to 0.5 µM | A (A denotes >20-fold) |
| Cc1cc(C(C)Nc2cc(F)ccc2C(=O)O)c2nc(-c3cccc(F)c3)c(C)c(=O)n2c1 (stereo not shown) [Compound 1197] | < 0.1 µM | A (A denotes >20-fold) |
| Cc1cc(C(C)Nc2ccccc2C(=O)O)c2nc(-c3ccnc(C)c3)c(C)c(=O)n2c1 (stereo not shown) [Compound 1202] |  | A (A denotes >20-fold) |
| Cc1cc(C(C)Nc2cccnc2C(=O)O)c2nc(-c3cccc(F)c3)c(C)c(=O)n2c1 (stereo not shown) [Compound 1223] | < 0.1 µM | A (A denotes >20-fold) |
